{
  "source": "paper PMC8459971",
  "about": "“Evaluation of the hepatotoxicity of the novel GPR40 (FFAR1) agonist CPL207280 in the rat and monkey” (PLoS ONE, 2021)",
  "test_system": "HepaRG spheroids",
  "experiment": "HepaRG 3D spheroids, cell and mitochondrial health markers, 14 days",
  "conditions": "for High Cell Loss (Cellular ATP) / High Cell Loss (DNA structure) / High Cell Loss (Glutathione content) / High Cell Loss (Mitochondrial mass) / High Cell Loss (Mitochondrial membrane potential) / High Cell Loss (Oxidative stress) / High Cell Loss (Spheroid count) / High Cell Loss (Spheroid size): timepoint 336; for AC50: Homo sapiens, HepaRG",
  "key": {"[1]": {"conditions": "HepaRG spheroid, TIMEPOINT 336, at the concentration (uM) given"}, "[2]": {"conditions": "HepaRG spheroid, TIMEPOINT 336, plotted value at the concentration given"}},
  "note": "Read-outs that look alike come from different tables or passages of the source.",
  "method": "Hepatic spheroids were formed by seeding HepaRG™ cells into round-bottom ultra-low adhesion 96-well spheroid plates (Corning®) in 3D liver media with 0.5% DMSO, 100 U/mL penicillin, and 100 mg/L streptomycin. Cells were incubated at 37°C and 5% CO2 until spheroid formation and then compound-treated. The test compound was diluted in the vehicle, and serial dilutions were made in a 0.5% vehicle in HepaRG™ induction media. […] L-buthionine sulfoximine was used as positive control for GSH content, whereas rotenone was simultaneously used as a positive control for mitochondrial dysfunction and ATP content. At the end of the incubation period, the cells were loaded with the relevant dye for each cell health marker: DNA structure–Hoescht, GSH content–mBCL, ROS formation–DHE, mitochondrial dysfunction–MitoTracker, and cellular ATP content–CellTiter-Glo®, Promega. The plate was then scanned using an automated confocal fluorescent cellular imager, ArrayScan® XTI (Thermo Scientific Cellomics) at 37°C and 5% CO2. Further, the cellular ATP content was measured using CellTiter-Glo® (Promega, USA).",
  "data": [
    {"smiles": "CCCCS(=N)(=O)CC[C@H](N)C(=O)O", "note": "(stereo partly drawn) [L-buthionine-sulfoximine]", "values": [
      {"measurement": "Mitochondrial mass Mean Plotted Value", "setting": "CONC 40 uM, TIMEPOINT 336", "value": 1.05},
      {"measurement": "Mitochondrial membrane potential Mean Plotted Value", "setting": "CONC 40 uM, TIMEPOINT 336", "value": 0.972},
      {"measurement": "Oxidative stress Mean Plotted Value", "setting": "CONC 40 uM, TIMEPOINT 336", "value": 1.22},
      {"measurement": "Spheroid count Mean Plotted Value", "setting": "CONC 40 uM, TIMEPOINT 336", "value": 1},
      {"measurement": "Spheroid size Mean Plotted Value", "setting": "CONC 40 uM, TIMEPOINT 336", "value": 0.955},
      {"measurement": "High Cell Loss (Cellular ATP)", "setting": "CONC 100 uM, HepaRG spheroid", "value": "N"},
      {"measurement": "High Cell Loss (DNA structure)", "setting": "CONC 100 uM, HepaRG spheroid", "value": "N"},
      {"measurement": "High Cell Loss (Glutathione content)", "setting": "CONC 100 uM, HepaRG spheroid", "value": "N"},
      {"measurement": "High Cell Loss (Mitochondrial mass)", "setting": "CONC 100 uM, HepaRG spheroid", "value": "N"},
      {"measurement": "High Cell Loss (Mitochondrial membrane potential)", "setting": "CONC 100 uM, HepaRG spheroid", "value": "N"},
      {"measurement": "High Cell Loss (Oxidative stress)", "setting": "CONC 100 uM, HepaRG spheroid", "value": "N"},
      {"measurement": "High Cell Loss (Spheroid count)", "setting": "CONC 100 uM, HepaRG spheroid", "value": "N"},
      {"measurement": "High Cell Loss (Spheroid size)", "setting": "CONC 100 uM, HepaRG spheroid", "value": "N"},
      {"measurement": "Cellular ATP Mean Plotted Value", "setting": "CONC 100 uM, TIMEPOINT 336", "value": 0.019},
      {"measurement": "DNA structure Mean Plotted Value", "setting": "CONC 100 uM, TIMEPOINT 336", "value": 1.13},
      {"measurement": "Glutathione content Mean Plotted Value", "setting": "CONC 100 uM, TIMEPOINT 336", "value": 0.119},
      {"measurement": "Mitochondrial mass Mean Plotted Value", "setting": "CONC 100 uM, TIMEPOINT 336", "value": 1.03},
      {"measurement": "Mitochondrial membrane potential Mean Plotted Value", "setting": "CONC 100 uM, TIMEPOINT 336", "value": 0.807},
      {"measurement": "Oxidative stress Mean Plotted Value", "setting": "CONC 100 uM, TIMEPOINT 336", "value": 1.13},
      {"measurement": "Spheroid count Mean Plotted Value", "setting": "CONC 100 uM, TIMEPOINT 336", "value": 1},
      {"measurement": "Spheroid size Mean Plotted Value", "setting": "CONC 100 uM, TIMEPOINT 336", "value": 0.975},
      {"measurement": "High Cell Loss (Cellular ATP)", "setting": "CONC 400 uM, HepaRG spheroid", "value": "N"},
      {"measurement": "High Cell Loss (DNA structure)", "setting": "CONC 400 uM, HepaRG spheroid", "value": "N"},
      {"measurement": "High Cell Loss (Glutathione content)", "setting": "CONC 400 uM, HepaRG spheroid", "value": "N"},
      {"measurement": "High Cell Loss (Mitochondrial mass)", "setting": "CONC 400 uM, HepaRG spheroid", "value": "N"},
      {"measurement": "High Cell Loss (Mitochondrial membrane potential)", "setting": "CONC 400 uM, HepaRG spheroid", "value": "N"},
      {"measurement": "High Cell Loss (Oxidative stress)", "setting": "CONC 400 uM, HepaRG spheroid", "value": "N"},
      {"measurement": "High Cell Loss (Spheroid count)", "setting": "CONC 400 uM, HepaRG spheroid", "value": "N"},
      {"measurement": "High Cell Loss (Spheroid size)", "setting": "CONC 400 uM, HepaRG spheroid", "value": "N"},
      {"measurement": "Cellular ATP Mean Plotted Value", "setting": "CONC 400 uM, TIMEPOINT 336", "value": 0.00038},
      {"measurement": "DNA structure Mean Plotted Value", "setting": "CONC 400 uM, TIMEPOINT 336", "value": 0.279},
      {"measurement": "Glutathione content Mean Plotted Value", "setting": "CONC 400 uM, TIMEPOINT 336", "value": 0.0382},
      {"measurement": "Mitochondrial mass Mean Plotted Value", "setting": "CONC 400 uM, TIMEPOINT 336", "value": 0.963},
      {"measurement": "Mitochondrial membrane potential Mean Plotted Value", "setting": "CONC 400 uM, TIMEPOINT 336", "value": 0.452},
      {"measurement": "Oxidative stress Mean Plotted Value", "setting": "CONC 400 uM, TIMEPOINT 336", "value": 0.937},
      {"measurement": "Spheroid count Mean Plotted Value", "setting": "CONC 400 uM, TIMEPOINT 336", "value": 1},
      {"measurement": "Spheroid size Mean Plotted Value", "setting": "CONC 400 uM, TIMEPOINT 336", "value": 0.965},
      {"measurement": "High Cell Loss (Cellular ATP)", "setting": "CONC 1000 uM, HepaRG spheroid", "value": "N"},
      {"measurement": "High Cell Loss (DNA structure)", "setting": "CONC 1000 uM, HepaRG spheroid", "value": "N"},
      {"measurement": "High Cell Loss (Glutathione content)", "setting": "CONC 1000 uM, HepaRG spheroid", "value": "N"},
      {"measurement": "High Cell Loss (Mitochondrial mass)", "setting": "CONC 1000 uM, HepaRG spheroid", "value": "N"},
      {"measurement": "High Cell Loss (Mitochondrial membrane potential)", "setting": "CONC 1000 uM, HepaRG spheroid", "value": "N"},
      {"measurement": "High Cell Loss (Oxidative stress)", "setting": "CONC 1000 uM, HepaRG spheroid", "value": "N"},
      {"measurement": "High Cell Loss (Spheroid count)", "setting": "CONC 1000 uM, HepaRG spheroid", "value": "N"},
      {"measurement": "High Cell Loss (Spheroid size)", "setting": "CONC 1000 uM, HepaRG spheroid", "value": "N"},
      {"measurement": "Cellular ATP Mean Plotted Value", "setting": "CONC 1000 uM, TIMEPOINT 336", "value": 0.000301},
      {"measurement": "DNA structure Mean Plotted Value", "setting": "CONC 1000 uM, TIMEPOINT 336", "value": 0.123},
      {"measurement": "Glutathione content Mean Plotted Value", "setting": "CONC 1000 uM, TIMEPOINT 336", "value": 0.0358},
      {"measurement": "Mitochondrial mass Mean Plotted Value", "setting": "CONC 1000 uM, TIMEPOINT 336", "value": 0.999},
      {"measurement": "Mitochondrial membrane potential Mean Plotted Value", "setting": "CONC 1000 uM, TIMEPOINT 336", "value": 0.412},
      {"measurement": "Oxidative stress Mean Plotted Value", "setting": "CONC 1000 uM, TIMEPOINT 336", "value": 0.683},
      {"measurement": "Spheroid count Mean Plotted Value", "setting": "CONC 1000 uM, TIMEPOINT 336", "value": 1},
      {"measurement": "Spheroid size Mean Plotted Value", "setting": "CONC 1000 uM, TIMEPOINT 336", "value": 0.983},
      {"measurement": "Cellular ATP MEC", "setting": "HepaRG spheroid, TIMEPOINT 336", "value": 6.84, "unit": "µM"},
      {"measurement": "DNA structure MEC", "setting": "HepaRG spheroid, TIMEPOINT 336", "value": 222, "unit": "µM"},
      {"measurement": "Glutathione content MEC", "setting": "HepaRG spheroid, TIMEPOINT 336", "value": 2.95, "unit": "µM"},
      {"measurement": "Mitochondrial membrane potential MEC", "setting": "HepaRG spheroid, TIMEPOINT 336", "value": 177, "unit": "µM"},
      {"measurement": "Oxidative stress MEC", "setting": "HepaRG spheroid, TIMEPOINT 336", "value": "658 (NS) uM"},
      {"measurement": "Cellular ATP MR (% @ concentration)", "setting": "[1]", "value": 100, "unit": "%"},
      {"measurement": "DNA structure MR (% @ concentration)", "setting": "[1]", "value": 89, "unit": "%"},
      {"measurement": "Glutathione content MR (% @ concentration)", "setting": "[1]", "value": 96, "unit": "%"},
      {"measurement": "Mitochondrial membrane potential MR (% @ concentration)", "setting": "[1]", "value": 58, "unit": "%"},
      {"measurement": "Oxidative stress MR (% @ concentration)", "setting": "[1]", "value": 35, "unit": "%"},
      {"measurement": "Cellular ATP MR", "setting": "[2]", "value": 0.000301},
      {"measurement": "DNA structure MR", "setting": "[2]", "value": 0.123},
      {"measurement": "Glutathione content MR", "setting": "[2]", "value": 0.0358},
      {"measurement": "Mitochondrial membrane potential MR", "setting": "[2]", "value": 0.412},
      {"measurement": "Oxidative stress MR", "setting": "[2]", "value": 0.683},
      {"measurement": "AC50", "setting": "read-out: Cellular ATP AC50", "value": 15.5, "unit": "µM"},
      {"measurement": "AC50", "setting": "read-out: DNA structure AC50", "value": 294, "unit": "µM"},
      {"measurement": "AC50", "setting": "read-out: Glutathione content AC50", "value": 16.2, "unit": "µM"},
      {"measurement": "AC50", "setting": "read-out: Mitochondrial mass AC50", "value": "> 1000", "unit": "µM"},
      {"measurement": "AC50", "setting": "read-out: Mitochondrial membrane potential AC50", "value": 511, "unit": "µM"},
      {"measurement": "AC50", "setting": "read-out: Oxidative stress AC50", "value": "> 1000", "unit": "µM"},
      {"measurement": "AC50", "setting": "read-out: Spheroid count AC50", "value": "> 1000", "unit": "µM"},
      {"measurement": "AC50", "setting": "read-out: Spheroid size AC50", "value": "> 1000", "unit": "µM"}
    ]}
  ]
}
